In patent US9975878B2, “Substituted triazine BMI-1 inhibitors” (PTC Therapeutics, Inc., priority 2013, dated 2018):

system: Bmi-1 protein; assay: Sandwich ELISA Assay: Bmi-1 protein level in HT-1080 cells treated with test compounds; type: cell-based
Experimental: Cell Seeding and Compound Treatment (Day 1):
HT-1080 cells were seeded at 8000 cells/well (50 μL) in 96-well tissue culture plates. After the cells became adherent (3-4 hours), 2× diluted stocks of test compounds in 50 μL DMEM containing 1% DMSO (final DMSO concentration was 0.5%) were added and the plates were incubated at 37° C. under 5% CO2 for 40-48 hours.
ELISA Plate First Antibody Preparation (Day 2):
The First Antibody (Millipore Mouse, monoclonal to mouse Bmi-1, clone F6, catalog #05-637) diluted to 2 μg/mL in PBS was added (100 μL) to each well of a Nunc MaxiSorp 96-well ELISA plate. The plate was covered with a plate seal and allowed to stand overnight.
Cell Lysate Preparation (Day 3):
Fresh Lysis buffer (1×) was prepared on the day of the assay as follows: 1 mM EDTA, 150 mM NaCl, 0.5% Triton-X 100, 10 mM NaF, 20 mM B-Glycerophosphate, 1 mM DTT (in PBS, pH 7.2-7.4) and HALT protease inhibitor cocktail (1×) (Pierce #78410).
Lysis Buffer (1×, 40 μL) was added to each well and the plate was shaken for 5-10 minutes on an orbital shaker to allow cell lysis, then diluent (1% BSA in PBS in 0.5% NP40) (100 μL) was added to each well.
A standard curve was prepared at the following Bmi-1 concentrations: 8000, 4000, 2000, 1000, 500, 250, 125 and 0 pg/mL. The Bmi-1 Recombinant Protein Standard (Novus Biologicals PCGF4 Recombinant Protein (P01), catalog # H00000648-P01) used to prepare the standard curve was stored at −80° C. On first thaw, the Recombinant Protein Standard was diluted to 10 μg/μL in Blocking Buffer (1% BSA in PBS; BSA: Fisher Scientific Catalog #1600-100). Aliquots were taken and refrozen at −80° C. The aliquots may be kept at 4° C. and reused after first thaw, but only within 1-2 weeks. The Recombinant Protein Standard contains a GST-fusion tag that appears at approximately 70 Kda on Western Blot.
The prepared ELISA plate was washed 3× with Wash Buffer (0.05% Tween-20 in PBS). The final wash was removed from the plate and the plate was blotted dry. Blocking Buffer (300 μL) (1% BSA in PBS) was added to each well. The plate was covered with a plate seal and incubated at room temperature for 1 hour. The blocked plate was washed 3× with Wash Buffer, then the final wash was removed and the plate was blotted dry. The previously prepared samples and standards were added (100 μL/well) and the plate was covered with a plate seal and incubated at 4° C. overnight.
The prepared ELISA plate was removed from incubation and allowed to stand at room temperature for 30 minutes, then washed and blotted dry. The Second Antibody (Cell Signaling Rabbit anti-Bmi-1, Cat# 2830) diluted to 1:600 in Blocking Buffer was added (100 μL) to each well, except as needed for background control wells. The plate was covered with a plate seal and incubated for 1.5 hrs at room temperature.
The ELISA plate was washed and blotted dry as previously described. The Third Antibody (Cell Signaling HRP conjugated anti-rabbit IgG (CellSignaling, Cat#:7074) diluted to 1:300 in Blocking Buffer was added (100 μL) to each well, except as needed for background control wells. The plate was incubated for 1 hr at room temperature.
The plate was washed and blotted dry, then a previously prepared TMB substrate (TMB substrate kit, Pierce catalog #34021) (prepared by mixing kit reagents 1:1) (100 μL) was added per well. The plate was incubated for 20-30 minutes at room temperature in the dark, then Stop Solution (2 M sulfuric acid in water) (50 μL) was added per well. The plates were read at OD450 (experimental) and OD570 (reference).

EC50 | SMILES
1 to 10 nM | COc1ccc(Nc2nc(N)nc(-c3c(C(F)(F)F)nc4ccccn34)n2)cc1F [Cpd 1, N-(3-fluoro-4-methoxyphenyl)-6-[2-(trifluoromethyl)imidazo[1,2-a]pyridin-3-yl]-1,3,5-triazine-2,4-diamine]
10 to 100 nM | Cc1nc2ccccc2n1-c1nc(N)nc(Nc2ccc(C(F)(F)F)cc2)n1 [Cpd 2, 6-(2-methyl-1H-benzimidazol-1-yl)-N-[4-(trifluoromethyl)phenyl]-1,3,5-triazine-2,4-diamine]
100 to 3000 nM | Cc1nc2ccccc2n1-c1nc(N)nc(Nc2ccc(OC(F)(F)F)cc2)n1 [Cpd 3, 6-(2-methyl-1H-benzimidazol-1-yl)-N-[4-(trifluoromethoxy)phenyl]-1,3,5-triazine-2,4-diamine]
10 to 100 nM | Cc1nc2ccccc2n1-c1nc(N)nc(Nc2ccc(OC(F)F)cc2)n1 [Cpd 4, N-[4-(difluoromethoxy)phenyl]-6-(2-methyl-1H-benzimidazol-1-yl)-1,3,5-triazine-2,4-diamine]
100 to 3000 nM | Cc1nc2ccccc2n1-c1nc(N)nc(Nc2ccc(C(F)(F)F)c(F)c2)n1 [Cpd 5, N-[3-fluoro-4-(trifluoromethyl)phenyl]-6-(2-methyl-1H-benzimidazol-1-yl)-1,3,5-triazine-2,4-diamine]
10 to 100 nM | Cc1nc2ccccc2n1-c1nc(N)nc(Nc2ccc(OC(F)F)c(F)c2)n1 [Cpd 6, N-[4-(difluoromethoxy)-3-fluorophenyl]-6-(2-methyl-1H-benzimidazol-1-yl)-1,3,5-triazine-2,4-diamine]
1 to 10 nM | Cc1nc2ccccc2n1-c1nc(N)nc(Nc2ccc3[nH]ccc3c2)n1 [Cpd 7, N-(1H-indol-5-yl)-6-(2-methyl-1H-benzimidazol-1-yl)-1,3,5-triazine-2,4-diamine]
10 to 100 nM | Cc1nc2ccccc2n1-c1nc(N)nc(Nc2ccc3occc3c2)n1 [Cpd 8, N-(1-benzofuran-5-yl)-6-(2-methyl-1H-benzimidazol-1-yl)-1,3,5-triazine-2,4-diamine]
100 to 3000 nM | Cc1nc2cc(F)c(F)cc2n1-c1nc(N)nc(Nc2ccc(C(F)(F)F)cc2)n1 [Cpd 9, 6-(5,6-difluoro-2-methyl-1H-benzimidazol-1-yl)-N-[4-(trifluoromethyl)phenyl]-1,3,5-triazine-2,4-diamine]
100 to 3000 nM | Cc1nc2cc(F)c(F)cc2n1-c1nc(N)nc(Nc2ccc(OC(F)F)c(F)c2)n1 [Cpd 10, N-[4-(difluoromethoxy)-3-fluorophenyl]-6-(5,6-difluoro-2-methyl-1H-benzimidazol-1-yl)-1,3,5-triazine-2,4-diamine]
10 to 100 nM | Cc1nc2cc(F)c(F)cc2n1-c1nc(N)nc(Nc2ccc(OC(F)F)cc2)n1 [Cpd 11, N-[4-(difluoromethoxy)phenyl]-6-(5,6-difluoro-2-methyl-1H-benzimidazol-1-yl)-1,3,5-triazine-2,4-diamine]
100 to 3000 nM | Cc1nc2cc(Cl)c(Cl)cc2n1-c1nc(N)nc(Nc2ccc(C(F)(F)F)cc2)n1 [Cpd 12, 6-(5,6-dichloro-2-methyl-1H-benzimidazol-1-yl)-N-[4-(trifluoromethyl)phenyl]-1,3,5-triazine-2,4-diamine]
100 to 3000 nM | Cc1nc2ccccc2n1-c1nc(NO)nc(Nc2ccc(C(F)(F)F)cc2)n1 [Cpd 13, N-hydroxy-6-(2-methyl-1H-benzimidazol-1-yl)-N′-[4-(trifluoromethyl)phenyl]-1,3,5-triazine-2,4-diamine]
1 to 10 nM | Cc1nc2ccccc2n1-c1nc(N)nc(Nc2ccc3ncccc3c2)n1 [Cpd 14, 6-(2-methyl-1H-benzimidazol-1-yl)-N-(quinolin-6-yl)-1,3,5-triazine-2,4-diamine]
100 to 3000 nM | Cc1nc2ccccc2n1-c1nc(N)nc(Nc2ccc3ocnc3c2)n1 [Cpd 15, N-(1,3-benzoxazol-5-yl)-6-(2-methyl-1H-benzimidazol-1-yl)-1,3,5-triazine-2,4-diamine]
10 to 100 nM | Cc1nc2ccccc2n1-c1nc(NO)nc(Nc2ccc3ncccc3c2)n1 [Cpd 16, N-hydroxy-6-(2-methyl-1H-benzimidazol-1-yl)-N′-(quinolin-6-yl)-1,3,5-triazine-2,4-diamine]
100 to 3000 nM | Cc1nc2ncccc2n1-c1nc(N)nc(Nc2ccc(C(F)(F)F)cc2)n1 [Cpd 17, 6-(2-methyl-1H-imidazo[4,5-b]pyridin-1-yl)-N-[4-(trifluoromethyl)phenyl]-1,3,5-triazine-2,4-diamine]
1 to 10 nM | Cc1nc2ccccc2n1-c1nc(N)nc(Nc2ccc3c(c2)OCO3)n1 [Cpd 18, N-(1,3-benzodioxol-5-yl)-6-(2-methyl-1H-benzimidazol-1-yl)-1,3,5-triazine-2,4-diamine]
100 to 3000 nM | Cc1nc2ccccc2n1-c1nc(NCCO)nc(Nc2ccc3c(c2)OCO3)n1 [Cpd 19, 2-{[4-(1,3-benzodioxol-5-ylamino)-6-(2-methyl-1H-benzimidazol-1-yl)-1,3,5-triazin-2-yl]amino}ethanol]
1 to 10 nM | Cc1nc2ccccc2n1-c1nc(N)nc(Nc2cnc3ccccc3c2)n1 [Cpd 20, 6-(2-methyl-1H-benzimidazol-1-yl)-N-(quinolin-3-yl)-1,3,5-triazine-2,4-diamine]
10 to 100 nM | Cc1nc2ccccc2n1-c1nc(NCCO)nc(Nc2cnc3ccccc3c2)n1 [Cpd 21, 2-{[4-(2-methyl-1H-benzimidazol-1-yl)-6-(quinolin-3-ylamino)-1,3,5-triazin-2-yl]amino}ethanol]
10 to 100 nM | Cc1nc2ccccc2n1-c1nc(N)nc(Nc2cc3ccccc3cn2)n1 [Cpd 22, N-(isoquinolin-3-yl)-6-(2-methyl-1H-benzimidazol-1-yl)-1,3,5-triazine-2,4-diamine]
100 to 3000 nM | Cc1nc2ncccc2n1-c1nc(N)nc(Nc2ccc(OC(F)F)cc2)n1 [Cpd 23, N-[4-(difluoromethoxy)phenyl]-6-(2-methyl-1H-imidazo[4,5-b]pyridin-1-yl)-1,3,5-triazine-2,4-diamine]
100 to 3000 nM | Cc1nc2ncc(F)cc2n1-c1nc(N)nc(Nc2ccc(C(F)(F)F)cc2)n1 [Cpd 24, 6-(6-fluoro-2-methyl-1H-imidazo[4,5-b]pyridin-1-yl)-N-[4-(trifluoromethyl)phenyl]-1,3,5-triazine-2,4-diamine]
10 to 100 nM | Nc1nc(Nc2ccc(C(F)(F)F)cc2)nc(-c2c(C(F)(F)F)nc3ccc(F)cn23)n1 [Cpd 25, 6-[6-fluoro-2-(trifluoromethyl)imidazo[1,2-a]pyridin-3-yl]-N-[4-(trifluoromethyl)phenyl]-1,3,5-triazine-2,4-diamine]
10 to 100 nM | Cc1nc2ccc(F)cc2n1-c1nc(N)nc(Nc2ccc(C(F)(F)F)cc2)n1 [Cpd 26, 6-(6-fluoro-2-methyl-1H-benzimidazol-1-yl)-N-[4-(trifluoromethyl)phenyl]-1,3,5-triazine-2,4-diamine]
100 to 3000 nM | Cc1nc2cc(F)ccc2n1-c1nc(N)nc(Nc2ccc(C(F)(F)F)cc2)n1 [Cpd 27, 6-(5-fluoro-2-methyl-1H-benzimidazol-1-yl)-N-[4-(trifluoromethyl)phenyl]-1,3,5-triazine-2,4-diamine]
10 to 100 nM | Cc1nc2ccc(F)cc2n1-c1nc(N)nc(Nc2ccc(OC(F)F)cc2)n1 [Cpd 28, N-[4-(difluoromethoxy)phenyl]-6-(6-fluoro-2-methyl-1H-benzimidazol-1-yl)-1,3,5-triazine-2,4-diamine]
10 to 100 nM | Cc1nc2ccc(F)cc2n1-c1nc(N)nc(Nc2ccc(OC(F)F)c(F)c2)n1 [Cpd 29, N-[4-(difluoromethoxy)-3-fluorophenyl]-6-(6-fluoro-2-methyl-1H-benzimidazol-1-yl)-1,3,5-triazine-2,4-diamine]
10 to 100 nM | CCc1nc2ccccc2n1-c1nc(N)nc(Nc2ccc(C(F)(F)F)cc2)n1 [Cpd 30, 6-(2-ethyl-1H-benzimidazol-1-yl)-N-[4-(trifluoromethyl)phenyl]-1,3,5-triazine-2,4-diamine]
